Measurements published in patent US10544156B2, “Hemi-synthetic trilobine analogs for use as a drug” (PIERRE FABRE MEDICAMENT, priority 2015, dated 2020).

Columns and labels:
P73 promoter in HCT116 = test: C5 DNA methylation analysis of P73 promoter; assay type: cell-based, human; details: after 7 days, at 0.32 μM
Method: (§1) Cancer cell lines (colon HCT116 or leukaemia KG1) were treated with the compounds as indicated in the Data Tables and then analysed as following.
(§2) DNA was isolated from cultured cells using the DNeasy Blood and Tissue Kit according to the manufacturer's specifications (Qiagen). DNA bisulphite conversion was performed on 2 μg of DNA using the EZ DNA Methylation-Gold Kit according to the manufacturer's specifications (Zymo Research) and bisulfited DNA was eluted with 10 μL of water.
(§3) Two different techniques were used to analyse the DNA methylation profile after bisulfite conversion of genomic DNA: (A) cloning and sequencing or (B) COBRA. The primers for each promoter are specified in Table 4.
(§4) Sequencing of bisulfite-treated DNA allowing resolution of the methylation state of every cytosine in the target sequence, at single molecule resolution, is considered as the “gold standard” for DNA methylation analysis.
(§5) Bisulfite-specific primers with a minimum length of 18 bp were designed using Primer 3 program. […]
(§6) PCR amplicons were cloned with the StrataClone Ultra Blunt PCR Cloning Kit (Agilent Technologies), according to the manufacturers' instructions and up to 24 clones were picked for sequencing. […] Electrophoregram files and methylation signals at a given CpG site were quantified using the BISMA software as described above.

[1] = tested on: P15 promoter in leukaemia KG1 cells; test: C5 DNA methylation analysis of CDKN2B (P15) promoter; assay type: cell-based, human; details: after 3 days, at 0.32 μM
Method: as §1, §2, §3, §4, §5, §6

| Structure (SMILES) | Demethylation P73*/HCT116 (P73 promoter in HCT116) | Demethylation P15/KG1 [1] [% after] |
| --- | --- | --- |
| CCN(CC)CCCNC(=S)N1CCc2cc3c4cc2[C@@H]1Cc1ccc(OC)c(c1)Oc1ccc(cc1)C[C@H]1c2c(cc(OC)c(c2O4)O3)CCN1C(=S)NCCCN(CC)CC [Product 41] | *−24% after 7 days | – |
| CNC(=O)N1CCc2cc(OC)c3c4c2[C@@H]1Cc1ccc(cc1)Oc1cc(ccc1OC)C[C@H]1c2cc(c(cc2CCN1C)O3)O4 [Product 44] | *−17% after 7 days | – |
| COc1ccc2cc1Oc1ccc(cc1)C[C@@H]1NCCc3cc(OC)c4c(c31)Oc1cc3c(cc1O4)CCN(C)[C@H]3C2 [Trilobine (1), trilobine] | – | −25 |
